According to patent publication US10550105B2 (Ribon Therapeutics Inc., priority 2018, dated 2020):

target: PARP7 (Homo sapiens (Human), UniProt Q7Z3E1); assay: Enzymatic assay for inhibition of PARP7: TR-FRET displacement of biotinylated Probe A from the TIPARP active site; type: binding; settings: Table A-1
Method in brief: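 Percent inhibition derives from the ratio of 665 to 615 nm emission, which reports how much Probe A remains bound to TIPARP. Plates sat 30 min at 25° C before the time-resolved read (320 nm excitation).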

PARP7, sequence (Q7Z3E1 whole entry): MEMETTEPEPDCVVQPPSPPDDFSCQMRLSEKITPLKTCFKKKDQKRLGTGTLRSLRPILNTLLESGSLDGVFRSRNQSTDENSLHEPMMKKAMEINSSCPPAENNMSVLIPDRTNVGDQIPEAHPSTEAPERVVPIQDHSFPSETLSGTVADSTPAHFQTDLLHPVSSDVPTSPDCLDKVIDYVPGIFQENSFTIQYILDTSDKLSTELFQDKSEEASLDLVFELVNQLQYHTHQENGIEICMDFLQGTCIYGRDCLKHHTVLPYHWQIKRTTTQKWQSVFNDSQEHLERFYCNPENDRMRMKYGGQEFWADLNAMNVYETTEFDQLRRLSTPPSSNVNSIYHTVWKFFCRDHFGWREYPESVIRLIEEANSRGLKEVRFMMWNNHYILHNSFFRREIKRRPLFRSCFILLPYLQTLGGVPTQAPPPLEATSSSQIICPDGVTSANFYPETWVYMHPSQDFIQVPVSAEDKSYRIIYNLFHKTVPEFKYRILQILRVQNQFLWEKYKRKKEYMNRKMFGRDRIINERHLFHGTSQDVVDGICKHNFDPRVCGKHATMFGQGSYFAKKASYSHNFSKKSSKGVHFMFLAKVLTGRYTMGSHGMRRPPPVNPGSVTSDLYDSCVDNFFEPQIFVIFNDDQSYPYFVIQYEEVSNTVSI

Row | Structure (SMILES) | IC50
1 | CN(c1cccc2c1CN(c1cn[nH]c(=O)c1C(F)(F)F)C2)C1CCOCC1 [Example 282, 5-(4-(Methyl(tetrahydro-2H-pyran-4-yl)amino)isoindolin-2-yl)-4-(trifluoromethyl)pyridazin-3(2H)-one] | 100 to 1000 nM
2 | O=c1[nH]ncc(N2Cc3cccc(Oc4cccnc4)c3C2)c1C(F)(F)F [Example 233, 5-(4-(Pyridin-3-yloxy)isoindolin-2-yl)-4-(trifluoromethyl)pyridazin-3(2H)-one] | < 100 nM
3 | O=C(CCOC[C@H](CCO)Oc1cn[nH]c(=O)c1C(F)(F)F)N1CCN(c2ncc(Cl)cn2)CC1 [Example 705, (S)-5-((1-(3-(4-(5-Chloropyrimidin-2-yl)piperazin-1-yl)-3-oxopropoxy)-4-hydroxybutan-2-yl)oxy)-4-(trifluoromethyl)pyridazin-3(2H)-one] | 100 to 1000 nM
4 | CC(CC(=O)N1CCN(c2ccc(C#N)cn2)CC1)OC[C@@H](C)Oc1cn[nH]c(=O)c1C(F)(F)F (stereo partly drawn) [Example 569, 6-(4-[3-[(2R)-2-[[6-Oxo-5-(trifluoromethyl)-1,6-dihydropyridazin-4-yl]oxy]propoxy]butanoyl]piperazin-1-yl)pyridine-3-carbonitrile] | 100 to 1000 nM
5 | O=C(CCOCCOc1cn[nH]c(=O)c1C(F)(F)F)N1CCN(c2ncc(C(F)(F)F)cn2)CC1 [Example 534, 5-[2-(3-Oxo-3-[4-[5-(trifluoromethyl)pyrimidin-2-yl]piperazin-1-yl]propoxy)ethoxy]-4-(trifluoromethyl)-2,3-dihydropyridazin-3-one] | < 100 nM
6 | O=C(c1cccc(OC[C@H]2c3ccccc3CN2c2cn[nH]c(=O)c2C(F)(F)F)c1)N1CCN(c2ccccn2)CC1 [Example 350, (R)-5-(1-((3-(4-(Pyridin-2-yl)piperazine-1-carbonyl)phenoxy)methyl)isoindolin-2-yl)-4-(trifluoromethyl)pyridazin-3(2H)-one] | 100 to 1000 nM
7 | C[C@H]1c2ccccc2CN1c1cn[nH]c(=O)c1C(F)(F)F [Example 250, (S)-5-(1-Methylisoindolin-2-yl)-4-(trifluoromethyl)pyridazin-3(2H)-one] | 100 to 1000 nM
8 | N#Cc1ccc(NC2CCN(C(=O)CCOC[C@@H]3CCCN3c3cn[nH]c(=O)c3C(F)(F)F)CC2)nc1 [Example 116, 6-[[1-(3-[[(2S)-1-[6-oxo-5-(trifluoromethyl)-1,6-dihydropyridazin-4-yl]pyrrolidin-2-yl]methoxy]propanoyl)piperidin-4-yl]amino]pyridine-3-carbonitrile] | < 100 nM
9 | O=c1[nH]ncc(N2Cc3c(F)ccc(OCCN4CCOCC4)c3C2)c1C(F)(F)F [Example 286, 5-(4-Fluoro-7-(2-morpholinoethoxy)isoindolin-2-yl)-4-(trifluoromethyl)pyridazin-3(2H)-one] | < 100 nM
10 | O=c1[nH]ncc(N2Cc3ccc(OCCO)cc3C2)c1Cl [Example 157, 4-Chloro-5-(5-(2-hydroxyethoxy)isoindolin-2-yl)pyridazin-3(2H)-one] | 100 to 1000 nM
11 | O=C(CCOC[C@H](CCO)Nc1cn[nH]c(=O)c1C(F)(F)F)N1CCN(c2ncc(C(F)(F)F)cn2)CC1 [Example 643, (S)-5-((4-Hydroxy-1-(3-oxo-3-(4-(5-(trifluoromethyl)pyrimidin-2-yl)piperazin-1-yl)propoxy)butan-2-yl)amino)-4-(trifluoromethyl)pyridazin-3(2H)-one] | < 100 nM
12 | C[C@@H](COCCC(=O)N1CCN(c2ncc(C(F)(F)F)cn2)CC1)Sc1cn[nH]c(=O)c1Cl [Example 701, (S)-4-Chloro-5-((1-(3-oxo-3-(4-(5-(trifluoromethyl)pyrimidin-2-yl)piperazin-1-yl)propoxy)propan-2-yl)thio)pyridazin-3(2H)-one] | < 100 nM
13 | N#Cc1ccc(N2CCN(C(=O)CCOCC3c4ncccc4CN3c3cn[nH]c(=O)c3C(F)(F)F)CC2)nc1 (stereo not shown) [Example 412, 6-(4-(3-((6-(6-Oxo-5-(trifluoromethyl)-1,6-dihydropyridazin-4-yl)-6,7-dihydro-5H-pyrrolo[3,4-b]pyridin-7-yl)methoxy)propanoyl)piperazin-1-yl)nicotinonitrile] | < 100 nM
14 | C[C@@H](OCCC(=O)N1CCN(c2ccc(C#N)cn2)CC1)[C@@H]1CCCN1c1cn[nH]c(=O)c1C(F)(F)F [Example 140A, 6-(4-[3-[(1R)-1-[(2S)-1-[6-oxo-5-(trifluoromethyl)-1,6-dihydropyridazin-4-yl]pyrrolidin-2-yl]ethoxy]propanoyl]piperazin-1-yl)pyridine-3-carbonitrile] | < 100 nM
15 | O=c1[nH]ncc(N2C[C@H]3CCCN[C@H]3C2)c1C(F)(F)F [Example 497, 5-((4aR,7aR)-Octahydro-6H-pyrrolo[3,4-b]pyridin-6-yl)-4-(trifluoromethyl)pyridazin-3(2H)-one] | ≥ 1000 nM

Continued, values first:

Row | IC50 | Structure (SMILES)
16 | 100 to 1000 nM | N#Cc1ccc(N2CCN(C(=O)c3cc(OC[C@H]4c5ccccc5CN4c4cn[nH]c(=O)c4C(F)(F)F)ccn3)CC2)nc1 [Example 356, (R)-6-(4-(4-((2-(6-Oxo-5-(trifluoromethyl)-1,6-dihydropyridazin-4-yl)isoindolin-1-yl)methoxy)picolinoyl)piperazin-1-yl)nicotinonitrile]
17 | 100 to 1000 nM | CC(=O)Nc1cccc2c1CN(c1cn[nH]c(=O)c1C(F)(F)F)C2 [Example 179, N-(2-(6-Oxo-5-(trifluoromethyl)-1,6-dihydropyridazin-4-yl)isoindolin-4-yl)acetamide]
18 | 100 to 1000 nM | N#Cc1ccc(N2CCN(C(=O)CCOC[C@H]3c4ccccc4CN3c3cn[nH]c(=O)c3C(F)(F)F)CC2)nc1 (single isomer, unassigned) [Example 93 Isomer B]
19 | < 100 nM | N#Cc1ccc(N2CCN(C(=O)/C=C/COC[C@@H]3c4ccccc4CN3c3cn[nH]c(=O)c3C(F)(F)F)CC2)nc1 [Example 79 Isomer C, 6-[4-[(2E)-4-[[(1S)-2-[6-oxo-5-(trifluoromethyl)-1,6-dihydropyridazin-4-yl]-2,3-dihydro-1H-isoindol-1-yl]methoxy]but-2-enoyl]piperazin-1-yl]pyridine-3-carbonitrile]
20 | < 100 nM | CO[C@H](C)[C@@H](COCCC(=O)N1CCN(c2ncc(C(F)(F)F)cn2)CC1)Nc1cn[nH]c(=O)c1C(F)(F)F [Example 607, 5-[[(2R,3R)-3-Methoxy-1-(3-oxo-3-[4-[5-(trifluoromethyl)pyrimidin-2-yl]piperazin-1-yl]propoxy)butan-2-yl]amino]-4-(trifluoromethyl)-2,3-dihydropyridazin-3-one]
21 | ≥ 1000 nM | O=c1[nH]ncc(N2Cc3ccccc3[C@H]2CO)c1C(F)(F)F [Example 247, (S)-5-(1-(Hydroxymethyl)isoindolin-2-yl)-4-(trifluoromethyl)pyridazin-3(2H)-one]
22 | < 100 nM | CC(=O)N1CCC(Oc2cc(F)c3c(c2)CN(c2cn[nH]c(=O)c2C(F)(F)F)C3)CC1 [Example 4, 5-[6-[(1-acetylpiperidin-4-yl)oxy]-4-fluoro-2,3-dihydro-1H-isoindol-2-yl]-4-(trifluoromethyl)-2,3-dihydropyridazin-3-one]
23 | < 100 nM | O=C(CCOC[C@H](CO)Nc1cn[nH]c(=O)c1C(F)(F)F)N1CCN(c2ccc(C(F)(F)F)cn2)CC1 [Example 604, 5-[[(2S)-1-Hydroxy-3-(3-oxo-3-[4-[5-(trifluoromethyl)pyridin-2-yl]piperazin-1-yl]propoxy)propan-2-yl]amino]-4-(trifluoromethyl)-2,3-dihydropyridazin-3-one]
24 | < 100 nM | N#Cc1ccc(N2CCN(C(=O)C3CC(OC[C@@H]4CCN(c5cn[nH]c(=O)c5C(F)(F)F)C4)C3)CC2)nc1 (stereo partly drawn) [Example 121A, 6-(4-((1R,3R)-3-((1-(6-oxo-5-(trifluoromethyl)-1,6-dihydropyridazin-4-yl)pyrrolidin-3-yl)methoxy)cyclobutanecarbonyl)piperazin-1-yl)nicotinonitrile]
25 | < 100 nM | C[C@@H](COCCC(=O)N1CCN(c2ccc(C(F)(F)F)nc2)CC1)Nc1cn[nH]c(=O)c1C(F)(F)F [Example 685, (S)-5-((1-(3-Oxo-3-(4-(6-(trifluoromethyl)pyridin-3-yl)piperazin-1-yl)propoxy)propan-2-yl)amino)-4-(trifluoromethyl)pyridazin-3(2H)-one]
26 | < 100 nM | N#Cc1ccc(N2CCN(C(=O)c3ccnc(OC[C@@H]4CCCN4c4cn[nH]c(=O)c4C(F)(F)F)c3)CC2)nc1 [Example 69, 6-[4-[(2-[[(2S)-1-[6-oxo-5-(trifluoromethyl)-1,6-dihydropyridazin-4-yl]pyrrolidin-2-yl]methoxy]pyridin-4-yl)carbonyl]piperazin-1-yl]pyridine-3-carbonitrile]
27 | 100 to 1000 nM | COc1cccc2c1C(C)N(c1cn[nH]c(=O)c1C(F)(F)F)C2 (stereo not shown) [Example 309, 5-(7-Methoxy-1-methylisoindolin-2-yl)-4-(trifluoromethyl)pyridazin-3(2H)-one]
28 | < 100 nM | N#Cc1cnc(N2CCN(C(=O)c3cncc(OC[C@@H]4CCCN4c4cn[nH]c(=O)c4C(F)(F)F)c3)CC2)nc1 [Example 65, 2-[4-[(5-[[(2S)-1-[6-oxo-5-(trifluoromethyl)-1,6-dihydropyridazin-4-yl]pyrrolidin-2-yl]methoxy]pyridin-3-yl)carbonyl]piperazin-1-yl]pyrimidine-5-carbonitrile]
29 | < 100 nM | C[C@H]1C[C@@H](COCCC(=O)N2CCN(c3ccc(C#N)cn3)CC2)N(c2cn[nH]c(=O)c2C(F)(F)F)C1 [Example 78, 6-[4-(3-[[(2S,4S)-4-methyl-1-[6-oxo-5-(trifluoromethyl)-1,6-dihydropyridazin-4-yl]pyrrolidin-2-yl]methoxy]propanoyl)piperazin-1-yl]pyridine-3-carbonitrile]
30 | < 100 nM | COc1cc(F)cc2c1CN(c1cn[nH]c(=O)c1C(F)(F)F)C2 [Example 274, 5-(6-Fluoro-4-methoxyisoindolin-2-yl)-4-(trifluoromethyl)pyridazin-3(2H)-one]
31 | ≥ 1000 nM | N#Cc1ccc(N2CCN(C(=O)CCNC[C@H]3c4ccccc4CN3c3cn[nH]c(=O)c3Cl)CC2)nc1 [Example 425, (R)-6-(4-(3-(((2-(5-Chloro-6-oxo-1,6-dihydropyridazin-4-yl)isoindolin-1-yl)methyl)amino)propanoyl)piperazin-1-yl)nicotinonitrile]
